Reference: patent US9738660B2, “Selective inhibitors for protein kinases and pharmaceutical composition and use thereof” (National Chiao Tung University, priority 2014, dated 2017)
Where two headings read alike, the source gives them in different places.

Legend:
Assay in all cases: Kinase Profiler, residual kinase activity
Type in all cases: biochemical
Details in all cases: read-out: percentage of the remaining kinase activity
[1] = target: DAPK1 (Homo sapiens, UniProt P53355)
Description: (§1) Kinase Profiler services provided by […]. (http://www.reactionbiology.com) were used to analyze the data of the 9 type-S protein kinase inhibitors against the 40 types of protein kinases.

[2] = target: ALK (Homo sapiens, UniProt Q9UM73)
Description: as §1

[3] = target: T1, STK4 (Homo sapiens, UniProt Q13043)
T1 construct: purchased Research Biology Corp. (http://www.reactionbiology.com)
T1 sequence (Q13043 1-487): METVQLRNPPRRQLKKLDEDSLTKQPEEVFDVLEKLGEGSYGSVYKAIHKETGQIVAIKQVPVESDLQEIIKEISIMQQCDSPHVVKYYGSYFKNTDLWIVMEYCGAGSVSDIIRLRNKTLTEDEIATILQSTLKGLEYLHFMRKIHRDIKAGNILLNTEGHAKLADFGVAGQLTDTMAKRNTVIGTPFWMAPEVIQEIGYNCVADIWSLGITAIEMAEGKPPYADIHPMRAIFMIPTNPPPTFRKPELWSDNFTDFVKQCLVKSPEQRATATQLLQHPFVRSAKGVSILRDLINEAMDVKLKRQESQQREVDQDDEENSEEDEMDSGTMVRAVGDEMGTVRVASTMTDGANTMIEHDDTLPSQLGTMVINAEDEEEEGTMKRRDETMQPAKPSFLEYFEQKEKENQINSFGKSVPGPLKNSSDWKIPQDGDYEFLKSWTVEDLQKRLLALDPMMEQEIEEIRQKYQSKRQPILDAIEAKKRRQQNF
Description: as §1

[4] = target: T2, IRAK4 (Homo sapiens, UniProt Q9NWZ3)
T2 sequence (Q9NWZ3 1-460): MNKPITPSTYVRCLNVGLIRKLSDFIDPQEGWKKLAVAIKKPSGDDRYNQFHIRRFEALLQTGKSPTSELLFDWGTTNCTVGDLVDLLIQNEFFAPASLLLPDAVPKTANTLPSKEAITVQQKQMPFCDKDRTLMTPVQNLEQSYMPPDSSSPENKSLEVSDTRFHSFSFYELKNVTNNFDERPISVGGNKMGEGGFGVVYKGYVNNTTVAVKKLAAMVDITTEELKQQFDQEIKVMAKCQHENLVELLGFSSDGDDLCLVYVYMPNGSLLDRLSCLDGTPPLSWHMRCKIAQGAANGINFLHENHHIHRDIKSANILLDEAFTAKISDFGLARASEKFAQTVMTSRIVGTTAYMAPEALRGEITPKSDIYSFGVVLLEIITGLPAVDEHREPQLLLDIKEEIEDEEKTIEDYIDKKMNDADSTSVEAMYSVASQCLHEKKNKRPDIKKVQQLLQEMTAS
Description: as §1

[5] = target: T3, RPS6KA5 (Homo sapiens, UniProt O75582)
T3 construct: purchased Research Biology Corp. (http://www.reactionbiology.com)
Description: as §1

[6] = target: AKT1 (Homo sapiens, UniProt P31749)
Description: as §1

[7] = target: T4, PRKACA (Homo sapiens, UniProt P17612)
T4 construct: purchased Research Biology Corp. (http://www.reactionbiology.com)
Description: as §1

[8] = target: DYRK1A (Homo sapiens, UniProt Q13627)
Description: as §1

[9] = target: T5, STK11 (Homo sapiens, UniProt Q15831)
T5 sequence (Q15831 1-433): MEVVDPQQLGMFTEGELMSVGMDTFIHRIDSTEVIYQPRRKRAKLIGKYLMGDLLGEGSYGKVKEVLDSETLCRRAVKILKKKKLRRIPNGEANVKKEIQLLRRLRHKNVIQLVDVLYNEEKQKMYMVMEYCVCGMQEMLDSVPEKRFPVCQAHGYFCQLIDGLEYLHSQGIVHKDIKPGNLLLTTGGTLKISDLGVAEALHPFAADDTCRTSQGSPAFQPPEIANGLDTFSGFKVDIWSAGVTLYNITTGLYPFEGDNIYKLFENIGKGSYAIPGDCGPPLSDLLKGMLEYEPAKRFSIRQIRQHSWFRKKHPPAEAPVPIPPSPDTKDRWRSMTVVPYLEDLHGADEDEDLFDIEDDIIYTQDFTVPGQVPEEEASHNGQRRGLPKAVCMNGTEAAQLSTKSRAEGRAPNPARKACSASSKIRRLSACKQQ
T5 sequence (Q7RTN6 1-431 partner): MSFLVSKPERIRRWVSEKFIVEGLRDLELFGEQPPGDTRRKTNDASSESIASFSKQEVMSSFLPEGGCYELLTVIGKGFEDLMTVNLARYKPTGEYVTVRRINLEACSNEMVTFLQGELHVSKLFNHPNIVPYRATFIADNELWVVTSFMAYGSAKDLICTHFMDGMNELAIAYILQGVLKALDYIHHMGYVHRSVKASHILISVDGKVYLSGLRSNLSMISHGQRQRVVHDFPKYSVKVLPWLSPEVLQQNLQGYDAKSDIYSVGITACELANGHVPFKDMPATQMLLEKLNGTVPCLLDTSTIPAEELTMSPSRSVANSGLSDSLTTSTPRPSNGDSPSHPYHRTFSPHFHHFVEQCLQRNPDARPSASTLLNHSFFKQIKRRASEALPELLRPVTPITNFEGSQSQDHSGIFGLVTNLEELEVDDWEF
T5 sequence (Q9Y376 1-341 partner): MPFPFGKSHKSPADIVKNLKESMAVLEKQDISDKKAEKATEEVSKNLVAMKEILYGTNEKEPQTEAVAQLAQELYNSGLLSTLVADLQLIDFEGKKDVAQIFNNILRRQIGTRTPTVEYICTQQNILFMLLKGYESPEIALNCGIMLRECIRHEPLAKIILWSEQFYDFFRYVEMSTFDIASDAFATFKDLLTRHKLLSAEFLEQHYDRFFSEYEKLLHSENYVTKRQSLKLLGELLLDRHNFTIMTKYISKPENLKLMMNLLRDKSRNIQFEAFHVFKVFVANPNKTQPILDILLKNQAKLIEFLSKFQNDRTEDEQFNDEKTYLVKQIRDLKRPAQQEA
Description: as §1

Sequence of ALK (Q9UM73 19-1620): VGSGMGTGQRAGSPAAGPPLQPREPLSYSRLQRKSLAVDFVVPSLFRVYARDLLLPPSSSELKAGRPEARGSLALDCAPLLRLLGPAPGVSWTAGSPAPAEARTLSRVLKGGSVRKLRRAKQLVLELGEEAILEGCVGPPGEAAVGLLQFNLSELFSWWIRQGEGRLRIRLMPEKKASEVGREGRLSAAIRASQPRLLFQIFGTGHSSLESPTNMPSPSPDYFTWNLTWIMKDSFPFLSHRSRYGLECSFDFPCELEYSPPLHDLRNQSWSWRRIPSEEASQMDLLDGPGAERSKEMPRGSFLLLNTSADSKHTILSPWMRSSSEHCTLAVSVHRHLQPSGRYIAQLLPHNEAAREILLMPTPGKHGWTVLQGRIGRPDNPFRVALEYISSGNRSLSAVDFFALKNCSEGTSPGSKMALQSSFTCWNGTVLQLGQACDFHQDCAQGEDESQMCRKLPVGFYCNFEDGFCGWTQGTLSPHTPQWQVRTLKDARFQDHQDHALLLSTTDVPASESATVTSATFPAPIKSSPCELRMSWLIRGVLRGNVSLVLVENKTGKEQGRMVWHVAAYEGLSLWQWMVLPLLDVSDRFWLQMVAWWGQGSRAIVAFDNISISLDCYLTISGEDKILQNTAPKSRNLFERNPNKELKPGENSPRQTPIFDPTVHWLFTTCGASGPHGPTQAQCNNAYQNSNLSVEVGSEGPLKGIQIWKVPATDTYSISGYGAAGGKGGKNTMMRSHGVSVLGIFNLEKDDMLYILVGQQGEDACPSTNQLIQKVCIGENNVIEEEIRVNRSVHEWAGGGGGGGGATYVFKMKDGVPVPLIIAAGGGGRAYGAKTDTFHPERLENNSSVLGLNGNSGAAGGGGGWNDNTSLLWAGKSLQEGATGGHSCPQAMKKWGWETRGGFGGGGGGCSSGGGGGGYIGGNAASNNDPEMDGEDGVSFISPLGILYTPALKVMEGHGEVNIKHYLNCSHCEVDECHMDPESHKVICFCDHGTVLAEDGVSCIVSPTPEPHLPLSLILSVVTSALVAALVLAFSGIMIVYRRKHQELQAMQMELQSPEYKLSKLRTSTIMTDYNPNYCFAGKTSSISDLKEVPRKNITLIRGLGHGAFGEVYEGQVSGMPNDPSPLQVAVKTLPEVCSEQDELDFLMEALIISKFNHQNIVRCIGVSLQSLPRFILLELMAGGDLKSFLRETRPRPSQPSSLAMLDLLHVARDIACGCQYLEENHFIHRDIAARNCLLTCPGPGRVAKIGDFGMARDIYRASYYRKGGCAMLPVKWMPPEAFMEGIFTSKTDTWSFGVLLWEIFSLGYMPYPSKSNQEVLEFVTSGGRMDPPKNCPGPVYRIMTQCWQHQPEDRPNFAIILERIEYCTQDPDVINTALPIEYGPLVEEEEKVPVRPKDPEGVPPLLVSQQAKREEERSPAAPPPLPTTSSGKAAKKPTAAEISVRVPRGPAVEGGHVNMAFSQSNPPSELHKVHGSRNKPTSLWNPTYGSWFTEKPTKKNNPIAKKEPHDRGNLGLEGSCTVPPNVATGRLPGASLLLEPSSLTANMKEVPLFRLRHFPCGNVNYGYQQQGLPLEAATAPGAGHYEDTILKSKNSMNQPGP
T3 sequence (O75582 whole entry): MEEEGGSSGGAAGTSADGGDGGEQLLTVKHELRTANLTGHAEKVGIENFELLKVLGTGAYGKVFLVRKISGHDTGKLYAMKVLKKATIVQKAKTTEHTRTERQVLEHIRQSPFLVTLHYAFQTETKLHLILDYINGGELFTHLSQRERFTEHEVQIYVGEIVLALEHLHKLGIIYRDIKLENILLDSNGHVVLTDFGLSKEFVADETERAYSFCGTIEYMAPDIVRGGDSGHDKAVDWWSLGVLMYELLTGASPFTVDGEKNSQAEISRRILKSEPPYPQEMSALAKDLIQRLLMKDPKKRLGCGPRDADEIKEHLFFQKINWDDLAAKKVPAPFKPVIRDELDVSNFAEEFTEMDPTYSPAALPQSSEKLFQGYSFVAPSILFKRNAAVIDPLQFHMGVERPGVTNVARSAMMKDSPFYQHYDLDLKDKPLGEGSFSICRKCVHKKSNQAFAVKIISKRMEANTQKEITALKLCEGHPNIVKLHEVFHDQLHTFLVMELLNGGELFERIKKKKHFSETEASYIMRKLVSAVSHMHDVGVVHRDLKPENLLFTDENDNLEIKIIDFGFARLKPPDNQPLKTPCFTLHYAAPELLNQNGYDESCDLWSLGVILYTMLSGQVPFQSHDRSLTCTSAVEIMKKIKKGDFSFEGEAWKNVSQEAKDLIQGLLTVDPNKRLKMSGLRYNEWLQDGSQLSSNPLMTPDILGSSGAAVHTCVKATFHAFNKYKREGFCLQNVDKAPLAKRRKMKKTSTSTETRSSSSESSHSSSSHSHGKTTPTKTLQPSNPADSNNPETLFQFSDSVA
Sequence of DAPK1 (P53355 whole entry): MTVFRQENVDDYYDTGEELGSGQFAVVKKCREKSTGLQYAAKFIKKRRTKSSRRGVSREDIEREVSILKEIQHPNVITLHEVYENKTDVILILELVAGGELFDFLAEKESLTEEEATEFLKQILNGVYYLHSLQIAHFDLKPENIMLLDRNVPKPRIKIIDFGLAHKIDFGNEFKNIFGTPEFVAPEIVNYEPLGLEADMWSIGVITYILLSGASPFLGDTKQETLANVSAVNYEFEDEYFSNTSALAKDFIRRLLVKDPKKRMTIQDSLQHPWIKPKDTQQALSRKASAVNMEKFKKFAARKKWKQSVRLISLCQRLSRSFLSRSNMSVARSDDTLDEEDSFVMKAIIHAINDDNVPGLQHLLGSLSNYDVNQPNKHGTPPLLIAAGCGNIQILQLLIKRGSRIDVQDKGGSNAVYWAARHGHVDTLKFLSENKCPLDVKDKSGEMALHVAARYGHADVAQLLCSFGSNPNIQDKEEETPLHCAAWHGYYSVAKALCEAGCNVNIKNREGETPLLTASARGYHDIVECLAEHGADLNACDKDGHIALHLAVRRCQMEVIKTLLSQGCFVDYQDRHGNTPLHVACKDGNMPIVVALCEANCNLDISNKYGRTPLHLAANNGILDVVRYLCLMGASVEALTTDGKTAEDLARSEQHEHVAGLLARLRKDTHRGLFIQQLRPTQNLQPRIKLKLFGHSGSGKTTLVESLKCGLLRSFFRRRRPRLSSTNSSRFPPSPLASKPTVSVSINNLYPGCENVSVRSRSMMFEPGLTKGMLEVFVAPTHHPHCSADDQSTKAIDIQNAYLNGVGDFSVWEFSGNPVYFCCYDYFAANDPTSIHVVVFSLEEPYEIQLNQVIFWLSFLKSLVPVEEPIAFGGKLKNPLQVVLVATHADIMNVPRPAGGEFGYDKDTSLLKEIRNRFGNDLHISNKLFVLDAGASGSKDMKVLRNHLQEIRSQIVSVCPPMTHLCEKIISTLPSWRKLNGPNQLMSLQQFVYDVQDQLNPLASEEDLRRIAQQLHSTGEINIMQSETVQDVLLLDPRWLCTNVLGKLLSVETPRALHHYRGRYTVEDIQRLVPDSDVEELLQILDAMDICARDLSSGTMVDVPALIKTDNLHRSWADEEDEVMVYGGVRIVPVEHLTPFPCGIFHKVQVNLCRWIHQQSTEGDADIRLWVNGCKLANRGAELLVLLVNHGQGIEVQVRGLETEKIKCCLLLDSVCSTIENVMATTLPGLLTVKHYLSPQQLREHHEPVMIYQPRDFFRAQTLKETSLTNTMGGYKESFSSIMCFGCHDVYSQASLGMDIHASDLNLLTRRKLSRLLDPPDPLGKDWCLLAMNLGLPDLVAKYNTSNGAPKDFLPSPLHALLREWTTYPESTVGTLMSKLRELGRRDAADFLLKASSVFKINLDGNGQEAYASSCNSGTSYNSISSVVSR
Sequence of AKT1 (P31749 whole entry): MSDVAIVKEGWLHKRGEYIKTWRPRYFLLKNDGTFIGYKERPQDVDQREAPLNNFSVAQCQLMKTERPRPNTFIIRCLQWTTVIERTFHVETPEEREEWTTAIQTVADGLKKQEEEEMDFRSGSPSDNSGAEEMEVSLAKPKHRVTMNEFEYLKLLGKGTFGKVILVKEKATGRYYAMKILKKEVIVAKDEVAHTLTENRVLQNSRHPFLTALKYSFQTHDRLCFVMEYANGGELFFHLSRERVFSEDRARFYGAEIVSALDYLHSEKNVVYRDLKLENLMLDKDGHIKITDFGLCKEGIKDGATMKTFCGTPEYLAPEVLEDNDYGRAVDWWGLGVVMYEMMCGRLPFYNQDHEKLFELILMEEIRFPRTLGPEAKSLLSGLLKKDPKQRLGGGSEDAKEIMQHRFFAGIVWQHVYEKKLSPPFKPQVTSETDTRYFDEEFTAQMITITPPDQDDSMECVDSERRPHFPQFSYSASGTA

remaining activity at 0.5 µM ([7]; PRKACA, inhibitor at 500 nM) [%] | remaining activity at 0.5 µM ([1]; DAPK1, inhibitor at 500 nM) [%] | remaining activity at 0.5 µM ([2]; ALK, inhibitor at 500 nM) [%] | remaining activity at 0.5 µM ([3]; STK4, inhibitor at 500 nM) [%] | remaining activity at 0.5 µM ([8]; DYRK1A, inhibitor at 500 nM) [%] | remaining activity at 0.5 µM ([9]; STK11, inhibitor at 500 nM) [%] | remaining activity at 0.5 µM ([4]; IRAK4, inhibitor at 500 nM) [%] | remaining activity at 0.5 µM ([5]; RPS6KA5, inhibitor at 500 nM) [%] | remaining activity at 0.5 µM ([6]; AKT1, inhibitor at 500 nM) [%] | SMILES | remaining activity at 0.5 µM [1] [%] | remaining activity at 0.5 µM [2] [%] | remaining activity at 0.5 µM [3] [%] | remaining activity at 0.5 µM [4] [%] | remaining activity at 0.5 µM [5] [%] | remaining activity at 0.5 µM [6] [%] | remaining activity at 0.5 µM [7] [%] | remaining activity at 0.5 µM [8] [%] | remaining activity at 0.5 µM [9] [%]
– | – | – | – | – | – | – | – | – | CN[C@@H]1C[C@H]2O[C@@](C)([C@@H]1OC)n1c3ccccc3c3c4c(c5c6ccccc6n2c5c31)C(=O)NC4 [STU, staurosporine, reference compound] | 1.9 | -0.3 | 5.5 | 1.6 | 1.1 | 3.8 | – | – | –
24.6 | 116 | 17.6 | 1.5 | 18.5 | 91.9 | 26.6 | 5.2 | 46.9 | COC1C(N(C)Cc2ccc(-c3ccccc3)cc2)CC2OC1(C)n1c3ccccc3c3c4c(c5c6ccccc6n2c5c31)C(=O)NC4 (stereo not drawn) [Compound 9] | – | – | – | – | – | – | – | – | –
– | – | – | – | – | – | – | – | – | COC1C(N(C)CCOc2cccc([N+](=O)[O-])c2)CC2OC1(C)n1c3ccccc3c3c4c(c5c6ccccc6n2c5c31)C(=O)NC4 (stereo not drawn) [Compound 8] | 89.8 | 19.5 | 2.7 | 27.9 | 7.4 | 52.3 | 26.4 | 25.3 | 101
13.9 | 26 | 3.3 | 1.8 | 0.4 | 88.7 | 33.4 | 1.7 | 19.6 | COC1C(N(C)C(=O)C(N)Cc2c[nH]cn2)CC2OC1(C)n1c3ccccc3c3c4c(c5c6ccccc6n2c5c31)C(=O)NC4 (stereo not drawn) [Compound 1] | – | – | – | – | – | – | – | – | –
38.3 | 96.4 | 56.7 | 12 | 17.8 | 113 | 87.4 | 1.6 | 79.6 | COC1C(N(C)C(=O)C(N)Cc2ccc(OC(C)(C)C)cc2)CC2OC1(C)n1c3ccccc3c3c4c(c5c6ccccc6n2c5c31)C(=O)NC4 (stereo not drawn) [Compound 4] | – | – | – | – | – | – | – | – | –
18.6 | 26.2 | 4.7 | 1.9 | 0.6 | 79.9 | 46.8 | 1.8 | 31.5 | COC1C(N(C)C(=O)C(N)CCC(=O)O)CC2OC1(C)n1c3ccccc3c3c4c(c5c6ccccc6n2c5c31)C(=O)NC4 (stereo not drawn) [Compound 7] | – | – | – | – | – | – | – | – | –
40.8 | 101 | 44.7 | 6 | 13.8 | 104 | 63.5 | 3.3 | 67.5 | COC1C(N(C)C(=O)C(N)CCC(=O)OC(C)(C)C)CC2OC1(C)n1c3ccccc3c3c4c(c5c6ccccc6n2c5c31)C(=O)NC4 (stereo not drawn) [Compound 6] | – | – | – | – | – | – | – | – | –
32.6 | 105 | 29.1 | 5.5 | 0.6 | 102 | 85.9 | 2.4 | 66.8 | COC1C(N(C)C(=O)C(N)Cc2ccc(O)cc2)CC2OC1(C)n1c3ccccc3c3c4c(c5c6ccccc6n2c5c31)C(=O)NC4 (stereo not drawn) [Compound 5] | – | – | – | – | – | – | – | – | –
81.1 | 107 | 85.4 | 72.8 | 88.6 | 106 | 101 | 61.4 | 97.6 | COC1C(N(C)C(=O)C(N)Cc2cn(C(=O)OC(C)(C)C)c3ccccc23)CC2OC1(C)n1c3ccccc3c3c4c(c5c6ccccc6n2c5c31)C(=O)NC4 (stereo not drawn) [Compound 2] | – | – | – | – | – | – | – | – | –
